Assay results from ChEMBL document CHEMBL1201862, “PubChem BioAssay data set” (2004).
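Where inhibition never reached the appropriate level, the endpoint shown equals the highest concentration tested. Otherwise, values were interpolated linearly from a five-concentration, 48-hour dose response in 96-well plates. The concentration for 50% growth inhibition is given as GI50.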 The source made the active and inactive calls. No stated cut-off is given here; in the data, active = GI50 up to about 1.1 µM and inactive = higher.

Key:
Assay in all cases: DTP human tumour cell line panel, 48 h
[1] = tested on: 786-0
[2] = tested on: A498
[3] = tested on: BT-549
[4] = tested on: CCRF-CEM
[5] = tested on: DU-145
[6] = tested on: HCT-116
[7] = tested on: HOP-92
[8] = tested on: K562
[9] = tested on: Malme-3M
[10] = tested on: NCI-H226
[11] = tested on: NCI-H460
[12] = tested on: NCI/ADR-RES
[13] = tested on: OVCAR-5
[14] = tested on: PC-3
[15] = tested on: SK-MEL-2
[16] = tested on: SK-OV-3
[17] = tested on: T47D
[18] = tested on: TK-10
[19] = tested on: U-251
[20] = tested on: UO-31

| Compound | GI50 [1] | GI50 [2] | GI50 [3] | GI50 [4] | GI50 [5] | GI50 [6] | GI50 [7] | GI50 [8] | GI50 [9] | GI50 [10] | GI50 [11] | GI50 [12] | GI50 [13] | GI50 [14] | GI50 [15] | GI50 [16] | GI50 [17] | GI50 [18] | GI50 [19] | GI50 [20] |
| --- | --- | --- | --- | --- | --- | --- | --- | --- | --- | --- | --- | --- | --- | --- | --- | --- | --- | --- | --- | --- |
| O=C1C=C(OCCCl)C(=O)c2c(O)ccc(O)c21 | 1.62 µM (inactive) | 1.28 µM (inactive) | 0.226 µM (active) | 0.469 µM (active) | 0.29 µM (active) | 0.409 µM (active) | 2.15 µM (inactive) | 2.25 µM (inactive) | 0.175 µM (active) | 2.26 µM (inactive) | 0.395 µM (active) | 2.56 µM (inactive) | 1.59 µM (inactive) | 1.82 µM (inactive) | 0.478 µM (active) | 1.71 µM (inactive) | 2.24 µM (inactive) | 2.38 µM (inactive) | 1.84 µM (inactive) | 1.42 µM (inactive) |
| CC(C)SC1SCC2C(=O)N(C)C3(CC3C)C(=O)OCC(NC(=O)c3nc4ccccc4cc3O)C(=O)NC(C)C(=O)N(C)C1C(=O)N(C)C1(CC1C)C(=O)OCC(NC(=O)c1nc3ccccc3cc1O)C(=O)NC(C)C(=O)N2C (stereo not given) | < 0.0001 µM (active) | < 0.0001 µM (active) | 0.01 µM (active) | < 0.0001 µM (active) | < 0.0001 µM (active) | < 0.0001 µM (active) | < 0.0001 µM (active) | < 0.0001 µM (active) | < 0.0001 µM (active) | < 0.0001 µM (active) | < 0.0001 µM (active) | 0.00446 µM (active) | < 0.0001 µM (active) | < 0.0001 µM (active) | < 0.0001 µM (active) | < 0.0001 µM (active) | < 0.0001 µM (active) | < 0.0001 µM (active) | < 0.0001 µM (active) | < 0.0001 µM (active) |
| C=C(CCC/C(C)=C/C=C/[C@@H](C)CCCc1ccoc1)C[C@@H]1OC(=O)[C@H](C)[C@@H]1O | 10.8 µM (inactive) | 7.26 µM (inactive) | 8.95 µM (inactive) | 9.89 µM (inactive) | 10.6 µM (inactive) | 13.3 µM (inactive) | 10.6 µM (inactive) | 21.5 µM (inactive) | 8.91 µM (inactive) | 6.43 µM (inactive) | 11 µM (inactive) | 9.04 µM (inactive) | 18.4 µM (inactive) | 7.31 µM (inactive) | 8.18 µM (inactive) | 7.46 µM (inactive) | 8.36 µM (inactive) | 13.1 µM (inactive) | 11 µM (inactive) | 7.85 µM (inactive) |
| CC(C)(C)OC(=O)N/C=C1\C(=O)Oc2ccccc2C1=O | 34.6 µM (inactive) | 8.36 µM (inactive) | 33.7 µM (inactive) | > 100 µM (inactive) | 8.67 µM (inactive) | 36 µM (inactive) | 45.3 µM (inactive) | > 100 µM (inactive) | 31.3 µM (inactive) | 20.7 µM (inactive) | 33.2 µM (inactive) | 41.4 µM (inactive) | 46.8 µM (inactive) | 32.3 µM (inactive) | 14.6 µM (inactive) | 0.0294 µM (active) | 24 µM (inactive) | 14.6 µM (inactive) | 19.8 µM (inactive) | 0.082 µM (active) |
| O=C(CBr)NCCc1c[nH]c2ccccc12 | 1.4 µM (inactive) | 19 µM (inactive) | 1.77 µM (inactive) | 0.174 µM (active) | 2.07 µM (inactive) | 1.65 µM (inactive) | 2.29 µM (inactive) | 1.44 µM (inactive) | 2.94 µM (inactive) | 0.655 µM (active) | 6.44 µM (inactive) | 2.11 µM (inactive) | 1.87 µM (inactive) | 1.99 µM (inactive) | 1.92 µM (inactive) | 2.67 µM (inactive) | 1.74 µM (inactive) | 1.86 µM (inactive) | 1.87 µM (inactive) | 1.72 µM (inactive) |
